{"source": "patent US10759781B2", "about": "“Substituted guanidine derivatives” (UBE INDUSTRIES, LTD., priority 2015, dated 2020)", "note": "Where a name gives a salt, the structure may show the parent alone."}
{"biological_target": "T1, Human VAP-1 enzyme (Homo sapiens, UniProt Q16853)", "T1 construct": "purchased R&D Systems, Inc", "T1 sequence (Q16853 1-763)": "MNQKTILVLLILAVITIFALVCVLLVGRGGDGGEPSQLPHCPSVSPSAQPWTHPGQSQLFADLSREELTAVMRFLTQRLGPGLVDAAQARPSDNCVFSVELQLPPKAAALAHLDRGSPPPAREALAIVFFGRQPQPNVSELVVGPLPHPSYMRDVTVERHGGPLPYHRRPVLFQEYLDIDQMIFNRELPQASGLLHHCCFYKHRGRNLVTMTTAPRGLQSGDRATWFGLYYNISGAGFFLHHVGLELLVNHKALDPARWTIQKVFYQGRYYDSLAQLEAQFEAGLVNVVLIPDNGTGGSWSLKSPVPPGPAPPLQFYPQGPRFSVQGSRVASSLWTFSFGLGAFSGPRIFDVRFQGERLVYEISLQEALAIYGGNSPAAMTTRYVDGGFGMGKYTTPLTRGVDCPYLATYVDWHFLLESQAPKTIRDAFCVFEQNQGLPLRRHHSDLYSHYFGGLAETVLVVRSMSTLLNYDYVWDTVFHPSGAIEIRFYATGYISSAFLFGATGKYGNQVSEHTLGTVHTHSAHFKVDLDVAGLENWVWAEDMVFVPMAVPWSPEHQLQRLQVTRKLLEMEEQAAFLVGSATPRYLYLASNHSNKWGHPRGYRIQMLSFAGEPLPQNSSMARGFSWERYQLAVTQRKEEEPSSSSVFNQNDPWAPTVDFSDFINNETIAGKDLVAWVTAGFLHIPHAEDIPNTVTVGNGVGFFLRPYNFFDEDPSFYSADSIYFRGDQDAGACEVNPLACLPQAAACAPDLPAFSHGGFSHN", "assay": "Human VAP-1 enzyme inhibition test", "type": "biochemical", "settings": "1 h; compound 30 nM; 14C-benzylamine 100 μM; read-out: inhibition ratio (human VAP-1 enzyme)", "description": "Human VAP-1 enzyme inhibition test\nThis test was conducted by modifying the method of P. H. Yu et al. (Diabetologia 40 1243 (1997)). Human VAP-1 enzyme (R&D Systems, Inc.) was pre-incubated in a 96-well plate with the compound dissolved in dimethylsulfoxide at room temperature for 20 minutes. Next, in a solution to the final volume of 200 μL, the enzyme reaction solution was incubated with ^14C-benzylamine (final concentration 100 μM) at 37° C. for 1 hour. The reaction was terminated by the addition of 100 μL of 2 M citric acid solution to the reaction solution. The oxidative product was extracted using a toluene/ethyl acetate mixture and the radioactivity was measured with a liquid scintillation counter. The inhibition ratio of the compound was calculated using the following equation. Inhibition ratio={1−[VAP-1 enzyme activity after treatment with the compound]/[VAP-1 enzyme activity in the presence of dimethylsulfoxide alone without the compound]}×100", "units": {"inhibition at 0.03 µM": "%"}}
{"smiles": "COCCN1CC(ON=C2CN(c3ncc(-c4cccc(COC(=O)NC(=N)N)c4F)cn3)C2)C1", "note": "[Example 147, 2-Fluoro-3-{2-[3-({[1-(2-methoxyethyl)azetidin-3-yl]oxy}imino)azetidin-1-yl]pyrimidin-5-yl}benzyl carbamimidoylcarbamate]", "inhibition at 0.03 µM": "≥ 50"}
{"smiles": "N=C(N)NC(=O)OCc1cccc(-c2cnc(N3CC(=NOC4CN(CCF)C4)C3)nc2)c1F", "note": "[Example 148, 2-Fluoro-3-{2-[3-({[1-(2-fluoroethyl)azetidin-3-yl]oxy}imino)azetidin-1-yl]pyrimidin-5-yl}benzyl carbamimidoylcarbamate]", "inhibition at 0.03 µM": "≥ 50"}
{"smiles": "CCOC(=O)CCCON=C1CCN(c2ncc(-c3cccc(COC(=O)NC(=N)N)c3F)cn2)CC1", "note": "[Example 152, Ethyl 4-[({1-[5-(3-{[(carbamimidoylcarbamoyl)oxy]methyl}-2-fluorophenyl)pyrimidin-2-yl]piperidin-4-ylidene}amino)oxy]butanoate]", "inhibition at 0.03 µM": "≥ 50"}
{"smiles": "CN(CCON=C1CCN(c2ncc(-c3cccc(COC(=O)NC(=N)N)c3F)cn2)CC1)S(C)(=O)=O", "note": "[Example 157, 2-Fluoro-3-[2-(4-{[2-(N-methylmethylsulfonamido)ethoxy]imino}piperidin-1-yl)pyrimidin-5-yl]benzyl carbamimidoylcarbamate hydrochloride]", "inhibition at 0.03 µM": "≥ 50"}
{"smiles": "CNCCON=C1CCN(c2ncc(-c3cccc(COC(=O)NC(=N)N)c3F)cn2)CC1", "note": "[Example 162, 2-Fluoro-3-[2-(4-{[2-(methylamino)ethoxy]imino}piperidin-1-yl)pyrimidin-5-yl]benzyl carbamimidoylcarbamate dihydrochloride]", "inhibition at 0.03 µM": "≥ 50"}
{"smiles": "N=C(N)NC(=O)OCc1cccc(-c2cnc(N3CCC(=NOCCN)CC3)nc2)c1F", "note": "[Example 164, 3-(2-{4-[(2-Aminoethoxy)imino]piperidin-1-yl}pyrimidin-5-yl)-2-fluorobenzyl carbamimidoylcarbamate]", "inhibition at 0.03 µM": "≥ 50"}
{"smiles": "N=C(N)NC(=O)OCc1cccc(-c2cnc(N3CCC(=NOCc4cnn(C5CCCCO5)c4)CC3)nc2)c1F", "note": "(stereo not drawn) [Example 172, 2-Fluoro-3-{2-[4-({[1-(tetrahydropyran-2-yl)-1H-pyrazol-4-yl]methoxy}imino)piperidin-1-yl]pyrimidin-5-yl}benzyl carbamimidoylcarbamate]", "inhibition at 0.03 µM": "≥ 50"}
{"smiles": "N=C(N)NC(=O)OCc1cccc(-c2cnc(N3CCC(=NOCCN4CCOC4=O)CC3)nc2)c1F", "note": "[Example 179, 2-Fluoro-3-[2-(4-{[2-(2-oxooxazolidin-3-yl)ethoxy]imino}piperidin-1-yl)pyrimidin-5-yl]benzyl carbamimidoylcarbamate]", "inhibition at 0.03 µM": "≥ 50"}
{"smiles": "N=C(N)NC(=O)OCc1cccc(-c2cnc(N3CCC(=NOCCN4CCOCC4=O)CC3)nc2)c1F", "note": "[Example 180, 2-Fluoro-3-[2-(4-{[2-(3-oxomorpholino)ethoxy]imino}piperidin-1-yl)pyrimidin-5-yl]benzyl carbamimidoylcarbamate]", "inhibition at 0.03 µM": "≥ 50"}
{"smiles": "CON=C1CN(c2ncc(-c3cccc(COC(=O)NC(=N)N)c3F)cn2)C1", "note": "[Example 184, 2-Fluoro-3-{2-[3-(methoxyimino)azetidin-1-yl]pyrimidin-5-yl}benzyl carbamimidoylcarbamate 1/2 L-tartrate]", "inhibition at 0.03 µM": "≥ 50"}
{"smiles": "CCON=C1CN(c2ncc(-c3cccc(COC(=O)NC(=N)N)c3F)cn2)C1", "note": "[Example 188, 3-{2-[3-(Ethoxyimino)azetidin-1-yl]pyrimidin-5-yl}-2-fluorobenzyl carbamimidoylcarbamate 1/2 L-tartrate]", "inhibition at 0.03 µM": "≥ 50"}
{"smiles": "O=C(O)C(O)C(O)C(=O)O.[2H]C([2H])([2H])ON=C1CN(c2ncc(-c3cccc(COC(=O)NC(=N)N)c3F)cn2)C1", "note": "[Example 192, 2-Fluoro-3-(2-{3-[(methoxy-d3)imino]azetidin-1-yl}pyrimidin-5-yl)benzyl carbamimidoylcarbamate 1/2 L-tartrate]", "inhibition at 0.03 µM": "≥ 50"}
